The text below walks through data of patent US10342233B2, “Control of aquatic weeds using combinations of 4-amino-3-chloro-6-(4-chloro-2-fluoro-3-methoxyphenyl)pyridine-2-carboxylic acids and other aquatic herbicides” (Dow AgroSciences LLC, priority 2015, dated 2019).

Like-named read-outs stand apart in the source and are kept apart here.

Common to all, as to format: in vivo
Experiment [1] has as its system Echinochloa oryzoides (Ard.) Fritsch (early watergrass). Description: Greenhouse in-water herbicidal activity, flooded pot system. The settings on record: ECHOR 2-3 lf (20-30% submerged), 20 DAA. The method, then: (§1) Weed seeds, nutlets, or vegetative cuttings of the desired test plant species were planted in puddled soil (mud) prepared by mixing a shredded, non-sterilized mineral soil (50.5 percent silt, 25.5 percent clay, and 24 percent sand, with a pH of approximately 7.6 and an organic matter content of approximately 2.9 percent) and water at a 1:1 volumetric ratio. The prepared mud was dispensed in 365 milliliter (mL) aliquots into 480 mL non-perforated plastic pots with a surface area of 86.59 square centimeters (cm^2) leaving a headspace of 3 centimeters (cm) in each pot. Mud was allowed to dry overnight prior to planting or transplanting.
The aquatic environment was created by filling the 3 cm headspace of the pots with water. When required to ensure good germination and healthy plants, a fungicide treatment and/or other chemical or physical treatment was applied. The plants were grown for 4-20 days in a greenhouse with an approximate 14 hour (h) photoperiod which was maintained at about 29° C. during the day and about 26° C. during the night. Nutrients were added as Osmocote® (19:6:12, N:P:K+minor nutrients) at 2 grams (g) per 480 mL pot. […]
Treatment requirements for each compound or herbicidal component were calculated based upon the rates being tested, the concentration of active ingredient or acid equivalent in the formulation, and a treatment application volume of 2 mL per compound per pot.
Measured amounts of formulated compounds were placed in individual glass vials and were dissolved in an aliquot of an aqueous mixture containing 1.25% volume per volume (v/v) Agri-Dex® crop oil concentrate. […]
(§2) The treated plants and control plants were placed in a greenhouse as described above and water was added as needed to maintain a flood in the pot. After approximately 20 days after application (DAA), the condition of the test plants, compared with that of the untreated plants, was determined visually and scored on a scale of 0 to 100 percent where 0 corresponds to no injury or growth reduction and 100 corresponds to complete kill.

The subject of experiment [2] is Echinochloa crus-galli (L.) P. Beauv. (barnyardgrass). As to conditions: ECHCG 2-5 lf (30% submerged), 20 DAA. How it is done:
as §1
(§3) The aquatic environment was created by filling the 3 cm headspace of the pots with water. […] The plants were grown for 4-20 days in a greenhouse with an approximate 14 hour (h) photoperiod which was maintained at about 29° C. during the day and about 26° C. during the night. Nutrients were added as Osmocote® (19:6:12, N:P:K+minor nutrients) at 2 grams (g) per 480 mL pot. Water was added on a regular basis to maintain the paddy flood, and supplemental lighting was provided with overhead metal halide 1000-Watt lamps as necessary. The plants were employed for testing when they reached the second through fifth true leaf stage or 5th node stage.
(§4) Treatments consisted of the benzyl ester of 4-amino-3-chloro-5-fluoro-6-(4-chloro-2-fluoro-3-methoxy-phenyl)pyridine-2-carboxylic acid (Compound II) formulated as a suspension concentrate (SC) and various herbicidal components alone and in combination.
(§5) Measured amounts of formulated compounds were placed in individual glass vials and were dissolved in an aliquot of an aqueous mixture containing 1.25% volume per volume (v/v) Agri-Dex® crop oil concentrate. A stock solution was prepared for each treatment concentration. Applications were made by injecting an appropriate amount of the application solution into the aqueous layer of the flooded greenhouse pot. Control plants were treated in the same manner with the solvent blank.
as §2

Experiment [3] relates to Leptochloa chinensis (L.) Nees (Chinese sprangletop). The settings on record: LEFCH 5 lf (30% submerged), 20 DAA. How it is done: as §1, §3, §4, §5, §2
The subject of experiment [4] is Ischaemum rugosum Salisb. (saramollagrass). How it is done: as §1, §3, §4, §5, §2
Experiment [5] concerns Alternanthera philoxeroides (Mart.) Griseb. (alligatorweed). Description: Greenhouse in-water herbicidal activity, flooded pot system. The settings on record: ALRPH 5 node, 20 DAA. The method, then: as §1, §3, §4, §5, §2
Experiment [6] concerns Cyperus esculentus L. (yellow nutsedge). The experiment is described as above. As to conditions: CYPES 4 lf (30% submerged), 20 DAA. How it is done: as §1, §3, §4, §5, §2
[7] abbreviates: 2100 ppb (elemental copper basis) in water.
Where [8] appears, read: 4200 ppb (elemental copper basis) in water.
Where [9] appears, read: 8300 ppb (elemental copper basis) in water.

For the compound `COc1c(Cl)ccc(-c2nc(C(=O)OCc3ccccc3)c(Cl)c(N)c2F)c1F` [Compound II, benzyl 4-amino-3-chloro-5-fluoro-6-(4-chloro-2-fluoro-3-methoxyphenyl)pyridine-2-carboxylate], the “Compound II Mean % Weed Control” value in experiment [1] (33.3 ppb in water) was 25.0%; in experiment [1] (133.4 ppb in water), 78.0%; in experiment [2] (33.25 ppb in water), 65.0%; in experiment [3] (66.6 ppb in water), 20.0%; in experiment [4] (ISCRU 2-3 lf (30-50% submerged), 66.6 ppb in water, 20 DAA), 75.0%; in experiment [4] (ISCRU 2-3 lf (30-50% submerged), 133.4 ppb in water, 20 DAA), 85.0%. The “Compound II Mean % Weed Control” value in experiment [5] (33.25 ppb in water) is reported as 55.0%; in experiment [5] (33.3 ppb in water), 55.0%; in experiment [5] (66.6 ppb in water), 68.0%; in experiment [6] (33.25 ppb in water), 18.0%; in experiment [6] (33.3 ppb in water), 18.0%; in experiment [6] (66.6 ppb in water), 68.0%.

Regarding `c1cc[n+]2c(c1)-c1cccc[n+]1CC2` [Diquat Dibromide, 9,10-dihydro-8a,10a-diazoniaphenanthrene], the “Diquat Dibromide Mean % Weed Control” value in experiment [1] (900 ppb in water) and in experiment [4] (in vivo) was 0.0% in each case.

In the case of `O=C(O)C1C2CCC(O2)C1C(=O)O` (centres unmarked) [Endothal, 7-oxabicyclo[2.2.1]heptane-2,3-dicarboxylic acid], the “Endothal Mean % Weed Control” value worked out at 0.0% in experiment [4] (ISCRU 2-3 lf (30-50% submerged), 1120 ppb in water, 20 DAA); 0.0% in experiment [4] (ISCRU 2-3 lf (30-50% submerged), 4480 ppb in water, 20 DAA); 0.0% in experiment [5] (1120 ppb in water); 0.0% in experiment [5] (4480 ppb in water); 0.0% in experiment [5] (8960 ppb in water); 0.0% in experiment [6] (1120 ppb in water). Moreover, the “Endothal Mean % Weed Control” value in experiment [6] (4480 ppb in water) was found to be 0.0%.

For `Cn1cc(-c2ccccc2)c(=O)c(-c2cccc(C(F)(F)F)c2)c1` [Fluridone, 1-methyl-3-phenyl-5-(α,α,α-trifluoro-m-tolyl)-4-pyridone], the “Fluridone Mean % Weed Control” value worked out at 10.0% in experiment [4] (ISCRU 2-3 lf (30-50% submerged), 10 ppb in water, 20 DAA); 10.0% in experiment [4] (ISCRU 2-3 lf (30-50% submerged), 45 ppb in water, 20 DAA); 65.0% in experiment [5] (180 ppb in water); 0.0% in experiment [6] (10 ppb in water); 0.0% in experiment [6] (45 ppb in water); 0.0% in experiment [6] (90 ppb in water).

With copper(II) sulfate [Copper Sulfate], the “Copper Sulfate Mean % Weed Control” value in experiment [5] (300 ppb in water), in experiment [5] (600 ppb in water), in experiment [5] (900 ppb in water), in experiment [6] (300 ppb in water) and in experiment [6] (600 ppb in water) was 0.0% in each case.

As to mixed copper ethanolamine complex, the “Mixed Copper Ethanolamine Complex Mean % Weed Control” value is listed as 0.0% in experiment [2] (setting [7]); 0.0% in experiment [2] (setting [8]); 0.0% in experiment [2] (setting [9]); 0.0% in experiment [3] (setting [8]); 0.0% in experiment [3] (setting [9]); 0.0% in experiment [4] (ISCRU 2-3 lf (30-50% submerged), 8300 ppb (elemental copper basis) in water, 20 DAA). Moreover, the “Mixed Copper Ethanolamine Complex Mean % Weed Control” value in experiment [5] (setting [7]), in experiment [5] (setting [8]) and in experiment [5] (setting [9]) was 0.0% throughout.
